# Results published in PubChem BioAssay (NCI).
# Where “and” joins values, the source holds several entries; their conditions need not be identical. Equal entries are not always repeated.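 Results reflect a 48-hour exposure of cells in 96-well plates to compound at five concentrations. TGI denotes the concentration required for complete inhibition of growth.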
# Tested on: HS 578T breast
# Assay: inhibition of tumour cell growth, NCI panel, 48 h
row,SMILES,TGI
1,C=C1C(=O)C=C[C@]2(C)CC[C@H]3C(=C)C(=O)O[C@@H]3[C@@H]12,48.8 µM
2,COc1ccc(C2OC(c3ccncc3)=NN2C)cc1OC (stereo not given),> 100 µM
3,CC12CCC(O)CC1CCC1C2CCC2(C)C(C(=O)CC(O)C(F)(F)F)CCC12 (stereo not given),> 80 µM
4,CC(C)(C)OC(=O)NCCCNC1(c2cc3ccccc3s2)CCCCC1,45.7 µM
5,COC1C=COC2(C)Oc3c(C)c(O)c4c(O)c(c(C5SCCS5)c(O)c4c3C2=O)NC(=O)C(C)=C/C=C\C(C)C2OC(C)(C)OC(C2C)C(C)C(OC(C)=O)C1C (stereo not given),63.3 µM
6,CC(C)(C)C(=O)CC1=Nc2ccccc2SC1(O)CC(=O)C(C)(C)C (stereo not given),71.7 µM
7,N#CC1=C(N)N(c2ccccc2)C(c2ccccc2)C1(C#N)C#N (stereo not given),> 100 µM
8,C=CCOc1ccc(C2(O)c3ccccc3C3=NCCCN32)cc1 (stereo not given),> 100 µM
9,CCOC(=O)NC(Nc1ccc([N+](=O)[O-])cc1)(C(F)(F)F)C(F)(F)F,> 100 µM
10,O=C1/C(=C/c2ccc(Cl)cc2)CSc2ccccc21,75.5 µM
11,CCC/C(Cl)=N\OC(=O)Nc1ccc(OC(F)(F)F)cc1,> 70.7 µM
12,CCCCN=C(c1ccccc1)N1CCOCC1,> 100 µM
13,CSc1ncnc2c1ncn2CCC#N,> 100 µM
14,C[N+]12CCCCC1C(CN1C(=O)Cc3c4ccccc4c(c4ccccc34)CC1=O)CCC2 (stereo not given),> 100 µM
15,COc1cccc(/C=N/n2c(C)n[nH]c2=O)c1,43.8 µM
16,CC(=O)O[C@H]1CC[C@@]2(C)C(=CC[C@H]3[C@@H]4C[C@H](N5CCOCC5)[C@H](OC(C)=O)[C@@]4(C)CC[C@@H]32)C1,> 100 µM
17,CCC1(C)C=Cc2c(cc(O)c3c(=O)c4ccccc4n(C)c23)O1 (stereo not given),> 10 µM
18,Cc1ccc(S(=O)(=O)NC(=O)N[C@@H](Cc2cnc[nH]2)C(=O)O)cc1,> 100 µM
19,CC1CCCC(CC(=O)O)(CC(=O)O)C1 (stereo not given),> 100 µM
20,CC(C)(Cl)C(Br)CCC(=CCCl)CBr (mixture of isomers),16.4 µM
21,CC(=O)OCC1OC(n2c3c(cc(C#N)c2=S)CCCCC3)C(OC(C)=O)C(OC(C)=O)C1OC(C)=O (stereo not given),> 100 µM
22,Nc1[nH]nc2nc3ccc(C(F)(F)F)cc3nc12,> 100 µM
23,CCN1CCC(O)(/C=C/c2ccc(C)cc2C)C(C(=O)/C=C/c2ccc(C)cc2C)C1 (stereo not given),5.38 µM
24,O=[N+]([O-])/C(C(Cl)=C(Cl)Cl)=C(\N1CCCCC1)n1cncn1,28.2 µM
25,O=C1c2cccnc2-c2nccc3c2c1nc1cc(Br)ccc13,0.942 µM
26,NC(CCC(=O)NC(CSCC1C(=O)Nc2ccccc21)C(=O)NCC(=O)O)C(=O)O (stereo not given),> 100 µM
27,NNC(=O)CSc1nc2ccccc2c(=O)n1N,98.8 µM

row,SMILES,TGI
1,Cc1cc(S(=O)(=O)Nc2nc3cc(-c4ccc(Cl)cc4)sc3c(=O)n2N)c(S)cc1Cl,> 100 µM
2,CCC(=O)ONC(=O)Cn1ccc([N+](=O)[O-])n1,> 100 µM
3,CC(=O)NC1c2ccccc2C(C)(C)C12CCC1(CC2)OCCO1 (stereo not given),> 100 µM
4,[N-]=[N+]=NC1=C(c2ccccn2)C(=O)c2cccc3cccc1c23,> 100 µM
5,CC1=NNC(=O)C1C(CC(=O)c1c[nH]c2ccccc12)C(=O)O (stereo not given),> 100 µM
6,Cc1ccc(O)c(-c2cscn2)c1,> 100 µM
7,C=C([C@@]1(O)C[C@H]2[C@H](CCC2(OC)OC)[C@@H]2c3ccccc3O[C@@H]21)[Si](C)(C)C,> 100 µM
8,O=C(O)c1ccc(OCc2nc3cc(C(F)(F)F)ccc3nc2-c2ccccc2)cc1,> 100 µM
9,COc1ccc2c(c1)CCN1CCc3ccccc3CC21 (stereo not given),> 100 µM
10,CN1COCc2c1ccc1cc3ccc4c(c3nc21)COCN4S(C)(=O)=O,> 100 µM
11,CN(C)c1ccc(C2SCC(=O)N2c2ccc(Oc3ccc(Cl)cc3)c(Cl)c2)cc1 (stereo not given),40.4 µM
12,CC(C(O)Cc1ccccc1)N(C)N=Nc1ccc([N+](=O)[O-])cc1 (stereo not given),55.6 µM
13,COc1ccc(/C=C2\N=C(SC)NC2=O)cc1,> 100 µM
14,CC(C)NC(=O)OCCN=c1c2ccccc2ccc2ccccc12,> 100 µM
15,CN(C)CCOC1(Cc2ccc(F)cc2)CCC(C(C)(C)C)CC1 (stereo not given),32.3 µM and 28 µM
16,Nc1ccc(C(=O)N2CCC[C@H]2CO)c(N)c1,> 100 µM
17,O=c1oc2ccc([N+](=O)[O-])cc2c(Nc2ccc3c(c2)Oc2ccccc2O3)c1[N+](=O)[O-],> 100 µM
18,On1c(-c2ccccc2)nc2ccccc2c1=S,> 100 µM
19,CC1=C(CO)C(=O)O[C@@H]([C@@H](CO)[C@H]2CCC3C4C[C@@H](O)[C@@]5(O)CC=CC(=O)[C@]5(C)C4CC[C@@]32C)C1 (stereo not given in full),> 100 µM
20,Cn1c2ccccc2c(=O)c2cccc(C(=O)NC(CCCN=C(N)N)C(=O)O)c21 (stereo not given),> 100 µM
21,COc1cc(OC)c(C2c3cc4c(cc3OC(N3CCCC3)C2C)OCO4)c(OC)c1 (stereo not given),18.1 µM
22,C=C1CN2CC(=C)CN(C1)CS(=O)(=O)N1CC(=C)CN(CC(=C)C1)S(=O)(=O)N1CC(=C)CN(CC(=C)C1)S(=O)(=O)C2,86.1 µM
23,O=C(O)/C=c1/c2ccccc2n2nc3ccccc3c12,78.8 µM
24,O=C1c2ccccc2C2(c3ccc(Cl)cc3)N[C@H]3CCCC[C@@H]3N12 (stereo not given in full),> 100 µM
25,Cn1c2ccccc2c(=NNc2cccc(C(=O)O)c2)c2ccccc21,64.7 µM
26,Cn1c(COC(=O)Nc2ccccc2)c(COC(=O)Nc2ccccc2)c2ccc3cc(Cl)c(Cl)cc3c21,29 µM

# Tested on: M14 melanoma
# Assay: inhibition of tumour cell growth, NCI panel, 48 h
row,SMILES,TGI
1,C=C1C(=O)C=C[C@]2(C)CC[C@H]3C(=C)C(=O)O[C@@H]3[C@@H]12,3.96 µM
2,COc1ccc(C2OC(c3ccncc3)=NN2C)cc1OC (stereo not given),> 100 µM
3,CC12CCC(O)CC1CCC1C2CCC2(C)C(C(=O)CC(O)C(F)(F)F)CCC12 (stereo not given),> 100 µM
4,CC(C)(C)OC(=O)NCCCNC1(c2cc3ccccc3s2)CCCCC1,25 µM
5,COc1ccc(N2C(=O)CSC2c2c[nH]c3ccccc23)cc1 (stereo not given),> 100 µM
6,COC1C=COC2(C)Oc3c(C)c(O)c4c(O)c(c(C5SCCS5)c(O)c4c3C2=O)NC(=O)C(C)=C/C=C\C(C)C2OC(C)(C)OC(C2C)C(C)C(OC(C)=O)C1C (stereo not given),> 100 µM
7,CC(C)(C)C(=O)CC1=Nc2ccccc2SC1(O)CC(=O)C(C)(C)C (stereo not given),81.9 µM
8,N#CC1=C(N)N(c2ccccc2)C(c2ccccc2)C1(C#N)C#N (stereo not given),44.9 µM
9,C=CCOc1ccc(C2(O)c3ccccc3C3=NCCCN32)cc1 (stereo not given),35.1 µM
10,CCOC(=O)NC(Nc1ccc([N+](=O)[O-])cc1)(C(F)(F)F)C(F)(F)F,> 100 µM
11,O=C1/C(=C/c2ccc(Cl)cc2)CSc2ccccc21,> 100 µM
12,CCC/C(Cl)=N\OC(=O)Nc1ccc(OC(F)(F)F)cc1,18.5 µM
13,CCCCN=C(c1ccccc1)N1CCOCC1,> 100 µM
14,CSc1ncnc2c1ncn2CCC#N,> 100 µM
15,C[N+]12CCCCC1C(CN1C(=O)Cc3c4ccccc4c(c4ccccc34)CC1=O)CCC2 (stereo not given),> 100 µM
16,COc1cccc(/C=N/n2c(C)n[nH]c2=O)c1,> 100 µM
17,CC(=O)O[C@H]1CC[C@@]2(C)C(=CC[C@H]3[C@@H]4C[C@H](N5CCOCC5)[C@H](OC(C)=O)[C@@]4(C)CC[C@@H]32)C1,> 100 µM
18,CC(C)CC(O)P(=O)(O)O (stereo not given),> 100 µM
19,CCC1(C)C=Cc2c(cc(O)c3c(=O)c4ccccc4n(C)c23)O1 (stereo not given),> 10 µM
20,Cc1ccc(S(=O)(=O)NC(=O)N[C@@H](Cc2cnc[nH]2)C(=O)O)cc1,> 100 µM
21,CC1CCCC(CC(=O)O)(CC(=O)O)C1 (stereo not given),> 100 µM
22,CC(C)(Cl)C(Br)CCC(=CCCl)CBr (mixture of isomers),4.05 µM
23,CC(=O)OCC1OC(n2c3c(cc(C#N)c2=S)CCCCC3)C(OC(C)=O)C(OC(C)=O)C1OC(C)=O (stereo not given),> 100 µM
24,Nc1[nH]nc2nc3ccc(C(F)(F)F)cc3nc12,> 100 µM
25,CCN1CCC(O)(/C=C/c2ccc(C)cc2C)C(C(=O)/C=C/c2ccc(C)cc2C)C1 (stereo not given),35.7 µM
26,O=[N+]([O-])/C(C(Cl)=C(Cl)Cl)=C(\N1CCCCC1)n1cncn1,33.7 µM

row,SMILES,TGI
1,S=C(Nc1ccc2c(c1)oc1ccccc12)c1cccnc1,> 100 µM
2,O=C1c2cccnc2-c2nccc3c2c1nc1cc(Br)ccc13,0.163 µM
3,NC(CCC(=O)NC(CSCC1C(=O)Nc2ccccc21)C(=O)NCC(=O)O)C(=O)O (stereo not given),10.8 µM
4,NNC(=O)CSc1nc2ccccc2c(=O)n1N,> 100 µM
5,Cc1cc(S(=O)(=O)Nc2nc3cc(-c4ccc(Cl)cc4)sc3c(=O)n2N)c(S)cc1Cl,> 100 µM
6,CCC(=O)ONC(=O)Cn1ccc([N+](=O)[O-])n1,> 100 µM
7,CC(=O)NC1c2ccccc2C(C)(C)C12CCC1(CC2)OCCO1 (stereo not given),> 100 µM
8,[N-]=[N+]=NC1=C(c2ccccn2)C(=O)c2cccc3cccc1c23,> 100 µM
9,CC1=NNC(=O)C1C(CC(=O)c1c[nH]c2ccccc12)C(=O)O (stereo not given),> 100 µM
10,Cc1ccc(O)c(-c2cscn2)c1,> 100 µM
11,C=C([C@@]1(O)C[C@H]2[C@H](CCC2(OC)OC)[C@@H]2c3ccccc3O[C@@H]21)[Si](C)(C)C,> 100 µM
12,O=C(O)c1ccc(OCc2nc3cc(C(F)(F)F)ccc3nc2-c2ccccc2)cc1,> 100 µM
13,COc1ccc2c(c1)CCN1CCc3ccccc3CC21 (stereo not given),36.6 µM
14,CN1COCc2c1ccc1cc3ccc4c(c3nc21)COCN4S(C)(=O)=O,> 100 µM
15,Oc1cccc(-c2nc3cc(F)ccc3s2)c1,37.8 µM
16,CN(C)c1ccc(C2SCC(=O)N2c2ccc(Oc3ccc(Cl)cc3)c(Cl)c2)cc1 (stereo not given),69 µM
17,CC(C(O)Cc1ccccc1)N(C)N=Nc1ccc([N+](=O)[O-])cc1 (stereo not given),33.1 µM
18,COc1ccc(/C=C2\N=C(SC)NC2=O)cc1,> 100 µM
19,CC(C)NC(=O)OCCN=c1c2ccccc2ccc2ccccc12,> 100 µM
20,CN(C)CCOC1(Cc2ccc(F)cc2)CCC(C(C)(C)C)CC1 (stereo not given),3.27 µM and 3.93 µM
21,Nc1ccc(C(=O)N2CCC[C@H]2CO)c(N)c1,> 100 µM
22,O=c1oc2ccc([N+](=O)[O-])cc2c(Nc2ccc3c(c2)Oc2ccccc2O3)c1[N+](=O)[O-],> 100 µM
23,On1c(-c2ccccc2)nc2ccccc2c1=S,> 100 µM
24,CC1=C(CO)C(=O)O[C@@H]([C@@H](CO)[C@H]2CCC3C4C[C@@H](O)[C@@]5(O)CC=CC(=O)[C@]5(C)C4CC[C@@]32C)C1 (stereo not given in full),> 100 µM
25,CSc1cnc2ccccc2c1SC1CN(Cc2ccccc2)c2ccccc2C1=O (stereo not given),> 100 µM
26,Cn1c2ccccc2c(=O)c2cccc(C(=O)NC(CCCN=C(N)N)C(=O)O)c21 (stereo not given),> 100 µM
